Source: PubChem BioAssay (NCI)
Several values for one entry are separate records, joined by “and”; a condition that tells them apart may be missing. Equal entries are not always repeated.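 Protocol summary: plate cells (96-well), add compound at 5 concentrations, incubate 48 h, interpolate endpoints linearly. The concentration for 50% growth inhibition is given as GI50. At the TGI there is no net growth.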

Key:
Assay in all cases: DTP human tumour cell line panel, 48 h
[1] = system: SK-MEL-28 melanoma
[2] = system: OVCAR-4 ovarian
[3] = system: HOP-62 NSCLC
[4] = system: UO-31 renal
[5] = system: HCT-116 colon
[6] = system: KM12 colon
[7] = system: HCT-15 colon
[8] = system: RXF 393 renal
[9] = system: U251 CNS
[10] = system: NCI-H23 lung

Row | Structure (SMILES) | GI50 [1] [nM] | TGI [1] | GI50 [2] [nM] | TGI [2] | GI50 [3] [nM] | TGI [3] [µM] | GI50 [4] [nM] | TGI [4] | GI50 [5] [nM] | TGI [5] | GI50 [6] [µM] | TGI [6] | GI50 [7] [nM] | TGI [7] | GI50 [8] [nM] | TGI [8] | GI50 [9] [nM] | TGI [9] | GI50 [10] [µM] | TGI [10]
1 | CC(=O)OC1C(O)COC(Oc2c(C)c3c4c(c2O)[C@@H](C)CC[C@@H]4[C@@H](C)C[C@H]3C=C(C)C)C1O (stereo partly drawn) | 22300 | 48.2 µM | 16800 | 47.1 µM | 15400 | 32.5 | 30000 | > 100 µM | 21100 | > 100 µM | 14.8 | 30.8 µM | 15200 | 31.7 µM | 7810 | 25.4 µM | 18000 | 35 µM | 17.9 | 37.5 µM
2 | C=C(C)[C@@H]1CC[C@]2(c3ncc(C)o3)CC[C@]3(C)[C@H](CC[C@@H]4[C@@](C)(CCC#N)[C@H](C(=C)C)CC[C@]43C)[C@@H]12 | 5420 | 18.4 µM | 4380 | 17.3 µM | 6990 | 21.6 | 2400 | 14.8 µM | 4410 | 16.4 µM | 3.89 | 15.1 µM | 3940 | 17.1 µM | 2140 | 5.12 µM | 3540 | 13.6 µM | 6.54 | 21.4 µM
3 | CCCCCn1ncc(-c2c(O)c(O)cc3c(O)c(-c4c(C)cc5c(-c6cnn(CCCCC)n6)c(O)c(O)cc5c4O)c(C)cc23)n1 | 306 | 6.36 µM | 176 | 4.49 µM | 140 | 2.75 | 180 | 1.84 µM | 26.2 | 4.07 µM | 0.101 | 5.25 µM | 97.6 | 5.01 µM | 112 | 6.45 µM | 35.1 | 1.89 µM | 0.078 | 3.66 µM
4 | CCc1nc2cc(/C=C/C(=O)NO)c(F)cc2c(=O)n1CCc1ccccc1 | 1370 | 6.97 µM | 689 | 17.8 µM | 1050 | 5.98 | 735 | 2.73 µM | 313 | 2.91 µM | 2.14 | 15.5 µM | 461 | 16.5 µM | 990 | 3.56 µM | 872 | 3.18 µM | 1.17 | 4.32 µM
5 | COc1ccc(-c2ccc(=O)oc2-c2cc(OC)c(OC)c(OC)c2)cc1O | 1640 | > 100 µM | 283 | > 100 µM | 19.9 | > 100 | < 20.8 | > 100 µM | 24.2 | > 100 µM | < 0.0248 | > 35.8 µM | 13.8 | > 20.5 µM | < 10 | 0.011 µM | 28.6 | > 100 µM | 0.0689 | > 100 µM
6 | COc1cc2c(cc1OCCN1C(=O)c3cccc4cccc(c34)C1=O)N=C[C@@H]1CCCN1C2=O | 19700 | 16.3 µM and 49.3 µM | – | 50 µM and 39 µM | – | 47.5 | 16800 | 15.8 µM and 30.5 µM | 20600 | 14.5 µM and 45.4 µM | 12.4 | 50 µM and 24.9 µM | 18600 | 21.4 µM and 40.2 µM | 20900 | 15 µM and 36.3 µM | 14200 | 12.6 µM and > 100 µM | 16.8 | 20.2 µM and 32.3 µM
7 | N#CC(C(=N/NC(N)=S)/C(=N\NC(N)=S)C(C#N)c1ccccc1)c1ccccc1 (stereo not drawn) | – | > 10 µM | – | > 10 µM | – | > 10 | – | > 10 µM | – | > 10 µM | – | > 10 µM | – | > 10 µM | – | > 10 µM | – | > 10 µM | – | > 10 µM
8 | Cc1ccc2nc(NC(=O)CSC(=S)N3CCN(Cc4ccccc4)CC3)sc2c1 | > 100000 | > 100 µM | > 100000 | > 100 µM | > 100000 | > 100 | > 79500 | > 100 µM | > 96700 | > 100 µM | > 94.3 | > 100 µM | > 100000 | > 100 µM | > 100000 | > 100 µM | > 100000 | > 100 µM | > 100 | > 100 µM
9 | O=S(O)CCCCSSCCCCS(=O)(O)=S | – | > 100 µM | – | 79 µM | – | > 100 | – | > 100 µM | – | > 100 µM | – | > 100 µM | – | > 100 µM | – | > 100 µM | – | > 100 µM | – | > 100 µM
10 | Cc1cc(Cl)ccc1N1C(=O)C(=O)C(c2nc3ccccc3s2)/C(=N\NC(=O)c2ccccc2O)C1=O (stereo not drawn) | – | > 100 µM | – | > 100 µM | – | > 100 | – | > 100 µM | – | > 100 µM | – | > 100 µM | – | > 100 µM | – | > 100 µM | – | > 100 µM | – | > 100 µM
11 | CC(=O)C1C(=O)C(=O)N(c2ccc(Cl)cc2C)C1=O (stereo not drawn) | – | > 100 µM | – | > 100 µM | – | > 100 | – | > 100 µM | – | > 100 µM | – | > 100 µM | – | > 100 µM | – | > 100 µM | – | > 100 µM | – | > 100 µM
12 | Cc1cc(Cl)ccc1OCC(=O)Oc1c(Cl)c(Cl)c(Cl)c(Cl)c1Cl | – | > 100 µM | – | 92.1 µM | – | 47.2 | – | 32 µM | – | 45.8 µM | – | 52.4 µM | – | 71.7 µM | – | 37.3 µM | – | 70.4 µM | – | 95.5 µM
13 | COc1cc([N+](=O)[O-])c(S(=O)(=O)O)cc1-n1nc(-c2ccccc2)n[n+]1-c1cc(S(=O)(=O)[O-])c([N+](=O)[O-])cc1OC | – | > 100 µM | – | > 100 µM | – | > 100 | – | > 100 µM | – | > 100 µM | – | > 100 µM | – | > 100 µM | – | > 100 µM | – | > 100 µM | – | > 100 µM
14 | CC(C)[C@H](COC(C)(C)C)N=CN1CSc2ccccc21 | – | > 100 µM | – | > 100 µM | – | > 100 | – | > 100 µM | – | 79.2 µM | – | > 100 µM | – | > 100 µM | – | 95.2 µM | – | > 100 µM | – | > 100 µM
15 | COc1ccc(S(=O)(=O)N2CCCCC2)cc1NC(=O)c1[nH]c(C)c2c1CCCCC2=O | 2720 | > 100 µM | 2110 | > 100 µM | 904 | > 100 | 379 | 40.7 µM | 1320 | 19.3 µM | 4.36 | > 100 µM | 1150 | > 100 µM | 818 | 4.09 µM | 2290 | 70.4 µM | 3.11 | > 100 µM
16 | CNC1=C(Br)C(=O)C2=C(C1=O)C1C3=C(C(=O)C=CC3=O)C2c2ccccc21 (stereo not drawn) | 3390 | > 24.7 µM | 1760 | 4.93 µM | 7680 | 23.6 | 6730 | 14.4 µM | 1440 | 2.86 µM | 14.4 | 48.7 µM | 2190 | 5.55 µM | 2570 | 4.72 µM | 2120 | 5.01 µM | 5.76 | 25.9 µM
17 | C=C(C)[C@@H]1CC[C@]2(C)[C@H](CC=C3[C@@H]4CC(C)(C)CC[C@]4(C(=O)OC)CC[C@]32C)[C@@]1(C)CC/C(N)=N/O | 2300 | 5.57 µM | 2160 | 7.23 µM | 4440 | 20.6 | 1510 | 2.94 µM | 1610 | 3.05 µM | 1.68 | 3.6 µM | 2050 | 5.6 µM | 1800 | 3.67 µM | 1810 | 3.69 µM | 2.84 | 10.1 µM
18 | COc1cccc2c1C(=O)c1c(O)c3c(c(O)c1C2=O)C[C@@](O)(C(=O)COC(=O)c1cccnc1)C[C@@H]3OC1CC(N)C(O)C(C)O1 (stereo partly drawn) | 203 | 0.689 µM | 280 | 3.48 µM | 124 | 1.28 | 460 | 2.89 µM | 47.5 | 0.492 µM | 0.284 | 8.44 µM | 1070 | 16.8 µM | 169 | 0.589 µM | 66.5 | 0.592 µM | 0.178 | 1.02 µM
